What was measured:
Type in all cases: in vivo
Abutilon theophrasti = assay: Test Example 4: herbicidal effect by application to foliage (diluvial soil, plastic box); details: Application herbicide amount 320 g/ha
From the text: (§1) 5 Herbicidal ratio of 90% or more (almost completely withered) 4 Herbicidal ratio of 70% or more and less than 90% 3 Herbicidal ratio of 40% or more and less than 70% 2 Herbicidal ratio of 20% or more and less than 40% 1 Herbicidal ratio of 5% or more and less than 20% 0 Herbicidal ratio of 5% or less (almost no effect) [Test Example 4] Herbicidal Effect Test by Application to Foliage Sterilized diluvial soil was placed in a plastic box having a length of 21 cm, a width of 13 cm, and a depth of 7 cm. Each of the seeds of Digitaria ciliaris, Setaria viridis, Echinochloa crus-galli var. crus-galli, Avena fatua, Alopecurus myosuroides, Lolium multiflorum Lam., Apera spica-venti., Abutilon theophrasti, Amaranthus retroflexus, Chenopodium album, Stellaria media, Galium spurium, Veronica persica, Zea mays, Glycine max, Oryza sativa, Triticum aestivum, Beta vulgaris ssp. vulgaris, and Brassica campestris L. was sowed in a spot-like manner and was covered with the soil of about 1.5 cm thick. Thereafter, the plants were grown in the greenhouse of 25° C. to 30° C. After the plants were grown for 14 days, the emulsion agent containing the compound of the present invention prepared in accordance with Formulation Example 2 was diluted with water so as to be a predetermined herbicide amount and the diluted compound was uniformly applied to a stem and leaf part with a small-size spray. Three weeks after the herbicide application, effects on each plant were investigated in accordance with the criteria of Test Example 1. A: Echinochloa oryzicola Vasing., B: Scirpus juncoides, C: Monochoria vaginalis, D: Leptochloa chinensis, E: Cyperus difformis, F: Digitaria ciliaris, G: Setaria viridis, H: Echinochloa crus-galli var. crus-galli, I: Avena fatua, J: Alopecurus myosuroides, K: Lolium multiflorum Lam., L: Apera spica-venti., M: Abutilon theophrasti, N: Amaranthus retroflexus, O: Chenopodium album, P: Stellaria media, Q: Galium spurium, R: Veronica persica, a: transplanted Oryza sativa, b: directly sowed Oryza sativa, c: Zea mays, d: Glycine max, e: Triticum aestivum, f: Beta vulgaris ssp. vulgaris, and g: Brassica campestris L. The application herbicide amount (g/ha) means an amount that a concentration is adjusted so that, when an application amount is converted into per hectare (1 ha), the herbicide is applied by the number of grams (g) of the described value.

Lolium multiflorum Lam. = assay: as above; details: Application herbicide amount 320 g/ha
From the text: as §1

Chenopodium album = assay: as above; details: Application herbicide amount 320 g/ha
From the text: as §1

Apera spica-venti. = assay: as above; details: Application herbicide amount 320 g/ha
From the text: as §1

[1] = system: Echinochloa crus-galli var. crus-galli; assay: as above; details: Application herbicide amount 320 g/ha
From the text: as §1

Digitaria ciliaris = assay: as above; details: Application herbicide amount 320 g/ha
From the text: as §1

Veronica persica = assay: as above; details: Application herbicide amount 320 g/ha
From the text: as §1

Galium spurium = assay: as above; details: Application herbicide amount 320 g/ha
From the text: as §1

Avena fatua = assay: as above; details: Application herbicide amount 320 g/ha
From the text: as §1

Alopecurus myosuroides = assay: as above; details: Application herbicide amount 320 g/ha
From the text: as §1

Setaria viridis = assay: as above; details: Application herbicide amount 320 g/ha
From the text: as §1

[2] = system: directly sowed Oryza sativa; assay: Test Example 3: effect on crop by application to foliage (Wagner pot, water depth 0.1-0.5 cm); details: Nineteenth Table; application to foliage; application herbicide amount 320 g/ha
From the text: (§2) 5 Herbicidal ratio of 90% or more (almost completely withered) 4 Herbicidal ratio of 70% or more and less than 90% 3 Herbicidal ratio of 40% or more and less than 70% 2 Herbicidal ratio of 20% or more and less than 40% 1 Herbicidal ratio of 5% or more and less than 20% 0 Herbicidal ratio of 5% or less (almost no effect) [Test Example 3] Herbicidal Effect Test by Application to Foliage After alluvial soil was placed into 1/10000 are of Wagner pot, water was poured and mixed to form a condition having a water depth of 0.1 cm to 0.5 cm. Seeds of Echinochloa crus-galli var. crus-galli, Leptochloa chinensis, Cyperus difformis, and Oryza sativa were sowed and the pot was placed in the greenhouse of 25° C. to 30° C. to grow the plants. After the plants were grown for 14 days, the emulsion agent containing the compound of the present invention prepared in accordance with Formulation Example 2 was diluted with water so as to be a predetermined herbicide amount and the diluted compound was uniformly applied to a stem and leaf part with a small-size spray. Three weeks after the herbicide application, effects on each plant were investigated in accordance with the criteria of Test Example 1. A: Echinochloa oryzicola Vasing., B: Scirpus juncoides, C: Monochoria vaginalis, D: Leptochloa chinensis, E: Cyperus difformis, F: Digitaria ciliaris, G: Setaria viridis, H: Echinochloa crus-galli var. crus-galli, I: Avena fatua, J: Alopecurus myosuroides, K: Lolium multiflorum Lam., L: Apera spica-venti., M: Abutilon theophrasti, N: Amaranthus retroflexus, O: Chenopodium album, P: Stellaria media, Q: Galium spurium, R: Veronica persica, a: transplanted Oryza sativa, b: directly sowed Oryza sativa, c: Zea mays, d: Glycine max, e: Triticum aestivum, f: Beta vulgaris ssp. vulgaris, and g: Brassica campestris L. The application herbicide amount (g/ha) means an amount that a concentration is adjusted so that, when an application amount is converted into per hectare (1 ha), the herbicide is applied by the number of grams (g) of the described value.

Brassica campestris L. = assay: Test Example 4: effect on crop by application to foliage (diluvial soil, plastic box); details: Application herbicide amount 320 g/ha; effect on crop
From the text: as §1

[3] = system: directly sowed Oryza sativa; assay: as above; details: Application herbicide amount 320 g/ha; effect on crop
From the text: as §1

Triticum aestivum = assay: as above; details: Application herbicide amount 320 g/ha; effect on crop
From the text: as §1

Glycine max = assay: as above; details: Application herbicide amount 320 g/ha; effect on crop
From the text: as §1

Zea mays = assay: as above; details: Application herbicide amount 320 g/ha; effect on crop
From the text: as §1

[4] = system: Beta vulgaris ssp. vulgaris; assay: as above; details: Application herbicide amount 320 g/ha; effect on crop
From the text: as §1

Leptochloa chinensis = assay: Test Example 3: herbicidal effect by application to foliage (Wagner pot, water depth 0.1-0.5 cm); details: Nineteenth Table; application to foliage; application herbicide amount 320 g/ha
From the text: as §2

[5] = system: Echinochloa crus-galli var. crus-galli; assay: as above; details: Nineteenth Table; application to foliage; application herbicide amount 320 g/ha
From the text: as §2

Cyperus difformis = assay: as above; details: Nineteenth Table; application to foliage; application herbicide amount 320 g/ha
From the text: as §2

Compound	M (Abutilon theophrasti)	K (Lolium multiflorum Lam.)	O (Chenopodium album)	L (Apera spica-venti.)	H [1]	F (Digitaria ciliaris)	R (Veronica persica)	I (Avena fatua)	J (Alopecurus myosuroides)	G (Setaria viridis)	b (effect on crop grade) [2]	g (Brassica campestris L.)	d [3]	e (Triticum aestivum)	c (Glycine max)	b (Zea mays)	f [4]	D (herbicidal effect grade) (Leptochloa chinensis)	H (herbicidal effect grade) [5]	E (herbicidal effect grade) (Cyperus difformis)	also measured
CON=Cc1nnc2c(C(=O)Nc3nnc(C)o3)ccc(C(F)(F)F)n12 [1-072]	1 (Herbicidal ratio of 5% or more and less than 20%)	0 (Herbicidal ratio of 5% or less (almost no effect))	4 (Herbicidal ratio of 70% or more and less than 90%)	0 (Herbicidal ratio of 5% or less (almost no effect))	3 (Herbicidal ratio of 40% or more and less than 70%)	0 (Herbicidal ratio of 5% or less (almost no effect))	1 (Herbicidal ratio of 5% or more and less than 20%)	0 (Herbicidal ratio of 5% or less (almost no effect))	0 (Herbicidal ratio of 5% or less (almost no effect))	0 (Herbicidal ratio of 5% or less (almost no effect))	0 (Herbicidal ratio of 5% or less (almost no effect))	0 (Herbicidal ratio of 5% or less (almost no effect))	0 (Herbicidal ratio of 5% or less (almost no effect))	0 (Herbicidal ratio of 5% or less (almost no effect))	0 (Herbicidal ratio of 5% or less (almost no effect))	0 (Herbicidal ratio of 5% or less (almost no effect))	0 (Herbicidal ratio of 5% or less (almost no effect))	1 (Herbicidal ratio of 5% or more and less than 20%)	2 (Herbicidal ratio of 20% or more and less than 40%)	0 (Herbicidal ratio of 5% or less (almost no effect))	Q (Galium spurium): 0 (Herbicidal ratio of 5% or less (almost no effect))
Cc1nnc(NC(=O)c2ccc(-c3ccccc3)n3c(C(C)C)nnc23)o1 [1-081]	0 (Herbicidal ratio of 5% or less (almost no effect))	0 (Herbicidal ratio of 5% or less (almost no effect))	4 (Herbicidal ratio of 70% or more and less than 90%)	0 (Herbicidal ratio of 5% or less (almost no effect))	0 (Herbicidal ratio of 5% or less (almost no effect))	0 (Herbicidal ratio of 5% or less (almost no effect))	0 (Herbicidal ratio of 5% or less (almost no effect))	0 (Herbicidal ratio of 5% or less (almost no effect))	0 (Herbicidal ratio of 5% or less (almost no effect))	0 (Herbicidal ratio of 5% or less (almost no effect))	0 (Herbicidal ratio of 5% or less (almost no effect))	0 (Herbicidal ratio of 5% or less (almost no effect))	0 (Herbicidal ratio of 5% or less (almost no effect))	0 (Herbicidal ratio of 5% or less (almost no effect))	0 (Herbicidal ratio of 5% or less (almost no effect))	0 (Herbicidal ratio of 5% or less (almost no effect))	1 (Herbicidal ratio of 5% or more and less than 20%)	0 (Herbicidal ratio of 5% or less (almost no effect))	2 (Herbicidal ratio of 20% or more and less than 40%)	0 (Herbicidal ratio of 5% or less (almost no effect))	
Cc1nnc(NC(=O)c2ccc(-c3cc(F)cc(F)c3)n3c(C(C)C)nnc23)o1 [1-088]	0 (Herbicidal ratio of 5% or less (almost no effect))	0 (Herbicidal ratio of 5% or less (almost no effect))	2 (Herbicidal ratio of 20% or more and less than 40%)	0 (Herbicidal ratio of 5% or less (almost no effect))	0 (Herbicidal ratio of 5% or less (almost no effect))	0 (Herbicidal ratio of 5% or less (almost no effect))	0 (Herbicidal ratio of 5% or less (almost no effect))	0 (Herbicidal ratio of 5% or less (almost no effect))	0 (Herbicidal ratio of 5% or less (almost no effect))	0 (Herbicidal ratio of 5% or less (almost no effect))		0 (Herbicidal ratio of 5% or less (almost no effect))	0 (Herbicidal ratio of 5% or less (almost no effect))	0 (Herbicidal ratio of 5% or less (almost no effect))	0 (Herbicidal ratio of 5% or less (almost no effect))	0 (Herbicidal ratio of 5% or less (almost no effect))	0 (Herbicidal ratio of 5% or less (almost no effect))				Q (Galium spurium): 0 (Herbicidal ratio of 5% or less (almost no effect))
CC(C)c1nnc2c(C(=O)Nc3nnc(-c4ccccn4)o3)ccc(C(F)(F)F)n12 [1-101]											0 (Herbicidal ratio of 5% or less (almost no effect))							0 (Herbicidal ratio of 5% or less (almost no effect))	1 (Herbicidal ratio of 5% or more and less than 20%)	0 (Herbicidal ratio of 5% or less (almost no effect))	
Cc1nnc(NC(=O)c2ccc(C(F)(F)F)n3c(C(C)C)nnc23)n1C [5-001]											0 (Herbicidal ratio of 5% or less (almost no effect))							0 (Herbicidal ratio of 5% or less (almost no effect))	1 (Herbicidal ratio of 5% or more and less than 20%)	0 (Herbicidal ratio of 5% or less (almost no effect))	

— patent publication US9708314B2, “Heterocyclic amide compound” (NISSAN CHEMICAL INDUSTRIES, LTD., priority 2013, dated 2017)
